Source: US20240041842A1, “PHARMACEUTICAL COMPOSITION FOR INHIBITING CANCER METASTASIS” (INDUSTRY-ACADEMIC COOPERATION FOUNDATION, YONSEI UNIVERSITY, priority 2021, published 2024)

Tests used:
Snail = assay: Western blot of Snail protein; assay type: cell-based, human; conditions: for effect of chloroquine (CQ) on Snail levels: MP or MOG combined with CQ
Procedure: (§1) Cells were harvested, washed with PBS, and lysed on ice with RIPA buffer containing protease and phophatase inhibitor cocktail (GenDEPOT). After 15 minutes of incubation, the cell lysates were centrifuged at 15,000 rpm at 4° C. for 10 minutes. Protein concentration was measured by Bradford assay (Bio-rad, 500-0006). Equal amounts of total protein were placed on an SDS gel electrophoresis and transferred to a PVDF membrane (Bio-rad). The membrane was blocked with 5% skim milk for 1 hour at room temperature and incubated overnight at 4° C. with primary antibody in a buffer containing 0.1% Tween-20. Subsequently, the membrane was washed three times with Tween-PBS buffer and incubated for 1 hour at room temperature using a secondary antibody diluted in blocking buffer containing 0.1% Tween-20. Subsequently, the membrane was washed three times for 10 minutes each using Tween-TBS. Densitometry of Western blots was measured using ImageJ software.
[…] For autophagy activation, cells were'treated with 2 μM rapamycin (Selleckchem, S1039) for 5 hours. Modulation of intracellular ROS was performed with N-acetyl-cysteine (10 mM) (Sigma, A7250), hydrogen peroxide solution (100 μM to 200 μM) (Sigma, 216763), or CDDO-ME NRF2 activator (50 nM, 100 nM) (Sellckchem, S8078) for 4 to 24 hours. Intercellular calcium signal control was performed for 1 hour using BAPTA-AM (20 μM) (Sigma, A1076) or Calmidazolium Chloride (2.5 μM) (Sigma, C3930). […] For TFEB protein phosphorylation, tacrolimus (1 μM) (Selleckchem, S5003) was treated for 1 hour. […] During siRNA treatment, each siRNA was treated to a concentration of 40 to 50 nM and treated together with Lipofectamine RNAiMax (Thermo Fisher Scientific, 13778150) for transformation, and were used for experiments 48 to 72 hours later. For cDNA treatment, each cDNA was treated to a concentration of 1 to 2 μg in a 6-well plate and treated with Lipofectamine 2000 (Thermo Fisher Scientific, 11668019) for transformation, and were used for experiments 24 hours later.

Intracellular citrate = assay: Citrate assay; assay type: cell-based, human; conditions: HBEC-KL; 8 mM MP or 3 mM MOG in the presence of 50 uM CQ
Procedure: Intracellular citrate levels were calculated in the pmol range using a citrate assay kit (Biovision, K655). After sonication, proteins were removed from the supernatant using a 10 kDa molecular weight cutoff spin column, followed by incubation at room temperature for 30 minutes with 50 μl citrate reaction mixture comprising enzyme mixture, developer and citrate probe. Citrate content was measured by reading OD 570 nm with an Envision Multimode Plate Reader (PerkinElmer 2105-0010, Waltham, MA, USA). After correcting the background in all readings, the value of each sample was determined and normalized to the protein concentration of each sample.

LC3 = assay: Autophagic flux (LC3 Western blot, mRFP-GFP-LC3 lysosomal delivery assay); assay type: cell-based, human; conditions: HBEC-KL cell line; NAC or 50 uM STO-609, 24 hours
Procedure: as §1, with “Representative GFP-LC3, RFP-LC3 and overlapping images are shown. In addition, red puncta (mRFP+/GFP−) and yellow puncta (mRFP+/GFP+) per cell were quantified and graphed (n=15 cells/treatment). Cells” for “Cells”

acetylated Snail = assay: Immunoprecipitation-immunoblot of acetylated Snail; assay type: cell-based, human; conditions: A549 luciferase cell line in vitro; 50 uM STO-609, 24 hours
Procedure: (§2) Cell lysates (1 μg protein) were incubated overnight at 4° C. on anti-FLAG® M2 Affinity Gel (Sigma, A2220) or anti-acetyl-lysine antibody coated agarose (ImmuneChem Pharmaceuticals, ICP0388). The immunoprecipitate was then washed three times in IP buffer, and the immunoprecipitated complex was dissolved and separated by boiling in IP buffer for 5 minutes.
For SDS-PAGE electrophoresis, the immunoprecipitated complex was transferred to a nitrocellulose membrane and the membrane was blocked and then incubated for 1 hour at room temperature with Primary antibody and secondary antibody (VeriBlot for IP Detection Reagent (HRP) (Abcam, #ab131366), and anti-mouse IgG tor IP (HRP) (Abeam, #ab131368)).
After washing 3 times, the membrane was incubated with the secondary antibody.

TFEB = assay: Western blot / immunoprecipitation-immunoblot of TFEB (acetylated, phosphorylated, total); assay type: cell-based, human; conditions: HBEC-KL; 50 uM STO-609, 24 hours
Procedure: FIG. 11J illustrates a diagram of immunoblot results of the […] a control (left), and the immunoprecipitation-immunoblot result of TFEB acetylated HBEC-KL cells under the same conditions (right) is also shown,
as §1
as §2, with “For immunoprecipitation, equal amounts of lysate and Co-IP buffer (40 mM HEPES, pH 7.4, 120 mM NaCl, 2 mM EDTA, 0.3% CHAPS (Sigma, 10810118001), 10 mM pyrophosphate (Sigma, 221368), 10 mM glycerophosphate (Sigma, G9422), 50 mM NaF, phosphatase and protease inhibitor mixture) were mixed. Cell” for “Cell”

A549-luc cells = assay: A549-luc tail vein injection metastasis model; assay type: in vivo; conditions: nude mice; 25 mg/kg, 100 mg/kg, qd, p.o. 28 consecutive days; compared to the vehicle-treated group
Procedure: FIG. 13E illustrates role of STO-609 on cancer metastasis in an A549-luc tail vein injection model. After intravenous injection of A549-luc cells into nude mice, vehicle or STO-609 (25 mg/kg and 100 mg/kg qd) was injected for 28 days starting one day after the injection. A picture taken of a bioluminescent image when 4 weeks have elapsed after injection is shown (above). Analysis results of the total metastasis burden by photonic flux are shown (below). FIG. 13H illustrates the role of BMS303141 on cancer metastasis in an A549-luc tail vein injection model. A549-luc cells were intravenously injected into nude mice, and then vehicle or BMS303141 (100 mg/kg q.d.) was injected for 20 days starting one day after the injection. A bioluminescence image when 3 weeks have elapsed after injection is shown. 7- to 9-week-old BALB/c-nu Sic mice were obtained from SLC, Inc. (Shizuoka, Japan) and used, A549-luc cells (#JCRB1414) or SNAI1 shRNA-mediated knockdown A549-luc cells were injected at 3-4.5×10^6 cells through the tail vein of mice. After 3 to 4 weeks, metastasis was monitored by bioluminescence imaging analysis. More specifically, after injecting D-luciferin (75 mg/kg) (PerkinElmer, 122799) into the abdominal cavity of the mouse, images were obtained using an IVIS imaging system (IVIS 200, PerkinElmer, Waltham, MA, USA) in the supine position. Lung tissue was obtained for histopathological analysis. Images were analyzed using commercially available software (ImageScope; Aperio Technologies). In the STO-609 efficacy test, STO-609 (25 mg, 100 mg/kg/day) was orally administered to mice on the day of injection. In the BMS303141 efficacy test, BMS303141 (100 mg/kg/day) was orally administered to mice on the day of injection.

Compound	expression level of Snail decreased by siIDH1 (Snail; HBEC-KL, 3 mM MOG)	Snail levels when ACLY was reduced (Snail; HBEC-KL, MOG supplemented condition, ACLY siRNA)	effect of chloroquine (CQ) on Snail levels (Snail; HBEC-KL)	effect of chloroquine (CQ) on citrate levels (Intracellular citrate)	Snail expression level decreased by siCS (Snail; HBEC-KL, 8 mM MP)	Snail protein (Snail; HBEC-KL cell line, STO-609)	abnormal increase in Snail expression level by AMG-510 (Snail; KL cell lines, 1 uM AMG-510 and 50 uM STO-609)	autophagic flux (LC3)	acetylated Snail (acetylated Snail)	acetylated TFEB (TFEB)	total metastasis burden (photonic flux) (A549-luc cells)	total number of lung metastases (A549-luc cells)
COC(=O)CCC(=O)C(=O)OC [MOG, dimethyl-2-oxoglutarate]	restored	did not recover	completely reverses	completely reverses	–	–	–	–	–	–	–	–
COC(=O)C(C)=O [MP, methyl pyruvate]	–	–	completely reverses	completely reverses	not increased	–	–	–	–	–	–	–
O=C(O)c1ccc2c3c1cccc3c(=O)n1c3ccccc3nc21 [STO-609]	–	–	–	–	–	reduction	reduced	decreased	reduced	reduces	reduced	reduced
